Results on one compound are retold here after publication PMC12345137 (mBio, 2025).

For experiment [1], the system named is S. aureus (SA) agr-III. To be noted: fluorescence; ref (10); cited from earlier work.
The subject of experiment [2] is S. epidermidis (SE) agr-III. To be noted: fluorescence; from supernatant; ref (18); cited from earlier work.
Experiment [3] relates to S. aureus (SA) agr-IV. Conditions: fluorescence; ref (10); cited from earlier work.
The subject of experiment [4] is S. epidermidis (SE) agr-II. Conditions: fluorescence; from supernatant; ref (18); cited from earlier work.
A further experiment deals with S. aureus agr-II (Staphylococcus aureus, UniProt O33587). The experiment is described as follows: cell-based. Put shortly: (§1)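 37°C, 1,000 rpm, 22–24 h in TSB + CAM or ERM (10 μg/mL); 1:5 serial peptide dilutions from 1 mM DMSO stocks; fluorescence (GFP ex 479/em 520, YFP ex 500/em 541) minus blank, ÷OD600, % of untreated control; IC50 by variable-slope fit.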
A further experiment concerns the target S. lugdunensis agr-I (Staphylococcus lugdunensis, UniProt Q8VSW5). Description: cell-based. To be noted: fluorescent reporter strain; peptides tested at 1000, 50, 2.5, 0.125 nM or in dose-response. The essentials: as §1
For a further experiment, the target named is SA AgrC-II (Staphylococcus aureus, UniProt O33587). Description: β-Lactamase assay, reporter strain RN10829 (P2-agrA:P3-blaZ) with pagrC-II. In kind it is cell-based. Conditions: 100 nM cognate AIP; ± SEM; -b = no inhibition recorded at the highest AIP concentration tested; -a = only partial inhibition observed; this study (curves in Fig. S20). The essentials: (§2)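 S. aureus RN10829 P2-agrA:P3-blaZ reporter carrying a plasmid for the matching wild-type AgrC, grown in TSB to OD600 0.35–0.40. Cells met peptides (10 μM–10 pM) plus cognate AIP at 100 nM for 1 h at 37°C, then nitrocefin (33.3 μg/mL) turnover was read at OD486 for 10 min; IC50 from linear rates.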

The subject of experiment [5] is S. aureus (SA) agr-IV. Set-up: method as in ref (9) (a number printed in a supplementary file, which may have a reference list of its own: not looked up in the article's list). To be noted: HPLC d-toxin, ref (9); cited from earlier work.
For the next experiment, the target named is SA AgrC-III (Staphylococcus aureus, UniProt O33590). The experiment is described as follows: β-Lactamase assay, reporter strain RN10829 (P2-agrA:P3-blaZ) with pagrC-III. In kind it is cell-based. The essentials: as §2
The test system of experiment [6] is S. epidermidis (SE) agr-I. To be noted: fluorescence, cited from earlier work.
Another experiment has as its system S. aureus (SA) agr-I. More on the design: method as in ref (9) (a number printed in a supplementary file, which may have a reference list of its own: not looked up in the article's list). To be noted: HPLC d-toxin; ref (9); cited from earlier work.
For experiment [7], the system named is S. aureus (SA) agr-II. Set-up: method as in ref (9) (a number printed in a supplementary file, which may have a reference list of its own: not looked up in the article's list). Conditions: HPLC d-toxin; ref (9); cited from earlier work.
The subject of experiment [8] is S. aureus (SA) agr-II. Conditions: fluorescence; ref (10); cited from earlier work.
In experiment [9] the test system is S. aureus (SA) agr-III. More on the design: method as in ref (9) (a number printed in a supplementary file, which may have a reference list of its own: not looked up in the article's list). Conditions: HPLC d-toxin; ref (9); cited from earlier work.
Another experiment addresses SA AgrC-IV (Staphylococcus aureus, UniProt Q309Z2). Description: β-Lactamase assay, reporter strain RN10829 (P2-agrA:P3-blaZ) with pagrC-IV. To be noted: 100 nM cognate AIP; ± SEM; -b = no inhibition recorded at the highest AIP concentration tested; -a = only partial inhibition observed; this study (curves in Fig. S22). It is filed as cell-based. Put shortly:
as §2

In a further experiment the target is S. epidermidis agr-III (Staphylococcus epidermidis, UniProt Q8VSX2). Description: cell-based. In kind it is cell-based. The essentials: as §1
A further experiment has as its target S. aureus agr-IV (Staphylococcus aureus, UniProt Q309Z2). Description: cell-based. It is filed as cell-based. Conditions: fluorescent reporter strain; peptides tested at 1000, 50, 2.5, 0.125 nM or in dose-response. Put shortly:
as §1

The structures appear in SMILES notation. Like-named read-outs stand apart in the source and are kept apart here. Positions of bridges follow the written chain, without caps; N, C: chain ends. Residues, ends and D or L forms follow the SMILES beside them. Bounds are passed on as bounds.

Sequence of S. aureus agr-II (O33587 entry or part of it): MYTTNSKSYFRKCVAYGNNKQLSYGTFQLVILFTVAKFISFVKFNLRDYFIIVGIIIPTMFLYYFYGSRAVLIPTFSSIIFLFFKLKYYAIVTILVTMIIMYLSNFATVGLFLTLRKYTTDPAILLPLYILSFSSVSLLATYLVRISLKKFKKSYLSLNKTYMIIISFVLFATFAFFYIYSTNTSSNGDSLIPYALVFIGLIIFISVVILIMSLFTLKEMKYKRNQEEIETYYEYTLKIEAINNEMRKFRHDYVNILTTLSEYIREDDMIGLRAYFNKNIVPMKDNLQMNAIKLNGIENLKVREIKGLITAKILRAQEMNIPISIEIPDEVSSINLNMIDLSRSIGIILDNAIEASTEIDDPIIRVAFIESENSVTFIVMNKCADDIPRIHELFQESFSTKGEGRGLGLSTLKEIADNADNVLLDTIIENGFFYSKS
Sequence of SA AgrC-II (O33587 entry or part of it): as above
Sequence of S. lugdunensis agr-I (Q8VSW5 entry or part of it): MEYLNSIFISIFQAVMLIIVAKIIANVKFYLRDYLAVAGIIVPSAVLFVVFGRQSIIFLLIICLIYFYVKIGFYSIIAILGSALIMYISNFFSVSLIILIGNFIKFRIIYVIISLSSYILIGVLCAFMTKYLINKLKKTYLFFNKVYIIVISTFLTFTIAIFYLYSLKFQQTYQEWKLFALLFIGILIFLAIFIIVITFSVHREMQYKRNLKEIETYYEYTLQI
Sequence of S. epidermidis agr-III (Q8VSX2 entry or part of it): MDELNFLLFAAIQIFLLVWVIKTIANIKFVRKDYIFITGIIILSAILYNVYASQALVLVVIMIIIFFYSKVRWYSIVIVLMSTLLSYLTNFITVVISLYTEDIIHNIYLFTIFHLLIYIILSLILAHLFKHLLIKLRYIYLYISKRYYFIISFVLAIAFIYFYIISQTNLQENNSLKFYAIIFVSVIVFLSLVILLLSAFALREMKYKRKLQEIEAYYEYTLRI
Sequence of SA AgrC-III (O33590 entry or part of it): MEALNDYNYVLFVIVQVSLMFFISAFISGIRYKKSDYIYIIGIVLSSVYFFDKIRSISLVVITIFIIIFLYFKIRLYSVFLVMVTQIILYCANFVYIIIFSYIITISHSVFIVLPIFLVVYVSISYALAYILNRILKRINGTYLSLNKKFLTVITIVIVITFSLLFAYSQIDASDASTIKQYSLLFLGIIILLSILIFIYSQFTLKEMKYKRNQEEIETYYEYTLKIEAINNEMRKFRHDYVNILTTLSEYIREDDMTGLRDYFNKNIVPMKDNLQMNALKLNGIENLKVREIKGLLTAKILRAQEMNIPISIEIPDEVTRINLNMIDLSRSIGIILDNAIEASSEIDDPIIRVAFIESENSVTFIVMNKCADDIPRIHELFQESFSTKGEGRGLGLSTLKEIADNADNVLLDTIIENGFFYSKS
Sequence of S. aureus agr-IV (Q309Z2 entry or part of it): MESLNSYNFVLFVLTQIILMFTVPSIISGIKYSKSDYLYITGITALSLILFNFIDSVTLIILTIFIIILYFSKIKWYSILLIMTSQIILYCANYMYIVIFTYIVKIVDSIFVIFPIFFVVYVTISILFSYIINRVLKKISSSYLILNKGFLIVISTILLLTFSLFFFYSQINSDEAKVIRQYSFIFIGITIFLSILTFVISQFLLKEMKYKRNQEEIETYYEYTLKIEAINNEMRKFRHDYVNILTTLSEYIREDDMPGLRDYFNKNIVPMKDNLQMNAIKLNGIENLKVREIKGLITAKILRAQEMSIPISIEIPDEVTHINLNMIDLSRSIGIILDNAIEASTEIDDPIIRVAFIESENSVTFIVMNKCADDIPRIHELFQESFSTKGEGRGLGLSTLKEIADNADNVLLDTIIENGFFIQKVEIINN
Sequence of SA AgrC-IV (Q309Z2 entry or part of it): as above

Turning to `CC(C)[C@H](NC(=O)[C@H](CO)NC(=O)[C@@H](N)CC(=O)O)C(=O)N[C@H]1CSC(=O)[C@H](Cc2ccccc2)NC(=O)[C@H](Cc2ccc(O)cc2)NC(=O)[C@H](CO)NC(=O)[C@H](C)NC1=O` [compound 5, S. epidermidis AIP-I] (H-DSVCASYF; thioester 4-C), the IC50 is 0.013 µM in the experiment with S. aureus (SA) agr-III [1]; over 1 µM in the experiment on S. aureus (SA) agr-IV [3]; 0.858 µM at S. aureus agr-II; over 1 µM on SA AgrC-III; about 0.25 µM with S. aureus (SA) agr-I; 0.03 to 0.04 µM in the experiment on S. aureus (SA) agr-II [7]. In addition, the IC50 is over 1 µM with S. aureus (SA) agr-II [8], about 0.01 µM with S. aureus (SA) agr-III [9] and 0.0086 ± 0.0007 µM at S. epidermidis agr-III. Further, in experiment [2], the “effect from supernatant (% inhibition, activation or no effect), SE agr-III” value is listed as ~ 90%. For the same compound, the “effect from supernatant (% inhibition, activation or no effect), SE agr-II” value in [4] is on record as ~ 90%. In addition, the “QS interaction in words (inhibition / activation), S. lugdunensis agr-I” value at S. lugdunensis agr-I is reported as “no effect at 1000 nM”. Further, the “IC50, SA AgrC-II, b-lactamase assay” value on SA AgrC-II is on record as “-b”. For the same compound, in the experiment on S. aureus (SA) agr-IV [5], the “inhibition at 1000 nM, SA agr-IV” value is recorded as “no inhibition”. For the same compound, the “effect from supernatant (% inhibition, activation or no effect), SE agr-I” value in [6] (from supernatant, ref (18)) is “activation”. The EC50 in [6] (ref (11)) is 0.196 µM. The “IC50, SA AgrC-IV, b-lactamase assay” value at SA AgrC-IV is reported as “-b”. Besides, on S. aureus agr-IV, the “QS interaction in words (inhibition / activation), S. aureus agr-IV” value is “no effect at 1000 nM”.
